Data as given in PMC7461020 (The EMBO Journal, 2020).
Entries after “also recorded” stand apart in the source; their conditions may differ.

Experiments:
SARS-CoV-2 [1] = assay type: cell-based
SARS-CoV-2 [2] = assay type: cell-based; remark: listed apart in the source

SMILES: CCC(CC)COC(=O)[C@H](C)N[P@](=O)(OC[C@H]1O[C@@](C#N)(c2ccc3c(N)ncnn23)[C@H](O)[C@@H]1O)Oc1ccccc1 [Remdesivir, reference compound]
- Reversal of SARS-CoV-2 induced CPE (SARS-CoV-2 [1]): ~ 90%

SMILES: CCN(CCO)CCCC(C)Nc1ccnc2cc(Cl)ccc12 (centres unmarked) [Hydroxychloroquine, reference compound]
- Reduction of viral titre (SARS-CoV-2 [2]): 10 fold
- Rescue of CPE (SARS-CoV-2 [1]): ~ 90%

SMILES: CC(c1cccc2ccccc12)N1CCC(C(=O)NCc2cccc(F)c2)CC1 (stereo not drawn) [rac3k]
- CPE reduction at lower concentrations (SARS-CoV-2 [1]): diminished
- Effect on SARS-CoV-2-induced CPE (SARS-CoV-2 [1]): significantly rescued infected cells; also recorded: reduced SARS‐CoV‐2‐induced CPE
- Remaining cell death (SARS-CoV-2 [1]): around 20%
- Toxicity on Vero cells (Vero cells): no toxicity
- Cellular toxicity (Vero cells; African green monkey): ~25%
